# Key:
# [1] = parameters: method as in PMID 33205981; conditions: in vitro, whole blood; cited from earlier work
# HbS = molecular target: T1, HbS (Homo sapiens, UniProt P68871+P69905, E7V); assay: Hb modification (Hb adduct formation), cation-exchange HPLC; assay type: cell-based; conditions: SS blood, 0.5, 1 and 2 mM
# T1 construct: tested using homozygous sickle cell (SS) blood for their pharmacologic activities; from tissue; host or cells: Whole blood (red blood cells) from individuals with homozygous sickle cell disease
# Description: (§1) The parent PP10, its acid metabolite PP10-acid, and the sodium salt PP10-NaSalt were tested using homozygous sickle cell (SS) blood for their pharmacologic activities. Leftover blood samples from individuals with SS were obtained (based on an approved IRB protocol at the Children’s Hospital of Philadelphia, with informed consent) and used for in vitro antisickling, Hb modification, and oxygen equilibrium studies following methods previously published by our group. For the antisickling study, SS blood samples (hematocrit 20%) were incubated under air in the absence or presence of PP10, PP10-acid, or PP10-NaSalt (0.5 mM, 1 mM, and 2 mM) at 37 °C for 1 h, followed by incubation of the mixture under hypoxic conditions (2.5% O2/97.5% N2) at 37 °C for 2 h. […]
# (§2) Residual samples from the above study were washed in phosphate-buffered saline and hemolyzed by hypotonic lysis in deionized water for the oxygen equilibrium and Hb modification (Hb adduct formation) studies. […] The areas of new peaks, representing HbS adducts, were obtained, calculated as percentages of total Hb area, and reported as levels of modified Hb or Hb adduct. […] Degree of Hb O2 affinity shift (ΔP50) was expressed as percentage of control DMSO-treated samples.
# [2] = Equilibrium aqueous solubility of PP10 and polymeric-PP10 binary systems; assay type: physicochemical; conditions: distilled water, 25 °C
# Description: The equilibrium solubility of pure PP10 and the three polymeric drug binary systems with PVP-K90, Eudragit L100-55, or HP-β-CD were studied to investigate the effect of the complexation on the aqueous solubility of PP10. An excess quantity of the pure drug or the prepared binary systems was added to 5 mL of distilled water in a screw-capped vial and transferred to a thermostatically controlled shaking water bath (Model 1031; GFL Corporation, Burgwedel, Germany) at 25 ± 0.5 °C for 72 h. […] Drug stock solution was prepared in methanol and different standard drug solutions in the range of 2–10 µg/mL were prepared. The absorbance of the prepared standard solutions was measured, resulting in a correlation coefficient (R^2) of 0.9986.
# [3] = Stability of PP10 at different pHs (HPLC, MASS scan); assay type: physicochemical
# Description: The parent PP10 could hydrolyze into the corresponding PP10-acid either chemically (acid/base hydrolysis) or by the action of esterase in the blood, which could affect the PK and/or PD properties. This potential hydrolysis behavior was studied by investigating the stability of the parent methylester compound in buffer at different pHs, and in blood. To examine potential chemical degradation, a solution of PP10 (2 mg/mL) was prepared in methanol. Known volume (1 mL) of this methanol solution was diluted with a definite volume (20 mL) of buffer at pH 1.2, 5.5, or 7.4, corresponding to the gastric pH, the pH of the proximal small intestine, and the pH of the terminal ileum or physiological body fluids, respectively. Methanolic drug solution of the same concentration was also prepared as a reference. The different pH mixtures were incubated in a water bath at 37 °C overnight. The high-performance liquid chromatography (HPLC) chromatogram of the parent compound (methanolic drug solution) was compared with the corresponding drug buffer samples. The molecular weight of degraded product(s) was investigated using MASS scan. Details of the apparatus and conditions are described below.
# [4] = test system: sickle red blood cell (SS blood); assay: In vitro antisickling study with sickle whole blood; assay type: cell-based, human; conditions: for antisickling effect (RBC sickling inhibition): SS blood HCT 20%, 0.5, 1 and 2 mM, hypoxia 2.5% O2
# Description: The parent PP10, its acid metabolite PP10-acid, and the sodium salt PP10-NaSalt were tested using homozygous sickle cell (SS) blood for their pharmacologic activities. Leftover blood samples from individuals with SS were obtained (based on an approved IRB protocol at the Children’s Hospital of Philadelphia, with informed consent) and used for in vitro antisickling, Hb modification, and oxygen equilibrium studies following methods previously published by our group. For the antisickling study, SS blood samples (hematocrit 20%) were incubated under air in the absence or presence of PP10, PP10-acid, or PP10-NaSalt (0.5 mM, 1 mM, and 2 mM) at 37 °C for 1 h, followed by incubation of the mixture under hypoxic conditions (2.5% O2/97.5% N2) at 37 °C for 2 h. Aliquots were fixed with 2% glutaraldehyde solution in sodium cacodylate buffer, pH 7.4, without exposure to air, and then subjected to microscopic morphological analysis of bright field images (at 40× magnification) of single layer cells on an Olympus BX40 microscope fitted with an Infinity 2 camera and coupled with Image Capture cellSens software (Olympus, Tokyo, Japan).
# [5] = Pharmacokinetics study in rats, whole blood PP10-acid; assay type: in vivo, Sprague-Dawley rats; conditions: rat, all analyses
# Description: A single-dose one-period parallel design was utilized to investigate the pharmacokinetics of pure PP10, the polymeric-PP10 binary systems with PVP-K90 and HP-β-CD, and the PP10-TPGS aqueous micelle solution formulation. The study was conducted according to the guidelines of Good Clinical Practice (GCP), the International Conference on Harmonization (ICH), and the European Medicines Agency (EMA). The protocol for the animal study received prior approval from the Research Ethics Committee, Faculty of Pharmacy, King Abdulaziz University, Saudi Arabia (reference no. PH-1442-68) in 04/03/2021.
# Male Sprague-Dawley rats (300–350 g) were used. The animals were maintained on a 12 h light/dark cycle (lights-on at 7 a.m.) with free access to food and water in a temperature-controlled room. After 7 days of acclimatization, animals were classified into four groups (n = 6). Group I was administered oral drug tablets containing pure drug (positive control). Group II was given oral drug tablets containing PP10-PVP K90 binary system. […]
# The concentration of the parent PP10 and PP10-acid metabolite in the whole blood samples were determined using a gradient elution HPLC chromatographic condition using a Waters Symmetry Shield C18 (Waters, MA, USA), 5 µm 3.9 × 150 mm column, and a Waters 2998 PDA detector (Waters, MA, USA) with detection wavelength adjusted to 274 nm. […]
# Hb = Hb oxygen equilibrium study (Hemox Analyzer, P50 shift); assay type: cell-based, human; conditions: 2 mM, SS blood
# Description: as §1, §2
Structure (SMILES),parent PP10 hydrolyzed into the PP10-acid metabolite [1],Hb adduct formation (HbS),solubility at 72 h [2],"stability (hydrolysis to PP10-acid) ([3]; buffer pH 1.2, 37 °C overnight)","stability (hydrolysis to PP10-acid) ([3]; buffer pH 5.5, 37 °C overnight)","stability (hydrolysis to PP10-acid) ([3]; buffer pH 7.4, 37 °C overnight)","stability ([3]; straight methanol, 37 °C overnight)","inhibition at 2000 µM ([4]; Homo sapiens, Erythrocyte, 2 mM, SS blood, read-out: RBC sickling inhibition more than PP10-acid)",antisickling effect (RBC sickling inhibition) [4],parent PP10 compound in whole blood after dosing [5],increase of Hb oxygen affinity compared with the ester (PP10) (Hb)
"COC(=O)c1cccc(COc2cccc(O)c2C=O)n1 [PP10, Methyl 6-((2-formyl-3-hydroxyphenoxy)methyl) picolinate]",about 20%,highest Hb adduct formation,12 ± 2 µg/mL,most significant degradation,degrades into the acid form,degrades into the acid form,stable,36%,dose-dependent antisickling effect,No parent PP10 compound (PP10) was observed in any of the analyses,–
O=Cc1c(O)cccc1OCc1cccc(C(=O)[O-])n1.[Na+] [PP10-NaSalt],–,significantly less adduct formation,–,–,–,–,–,–,almost no activity,–,–
O=Cc1c(O)cccc1OCc1cccc(C(=O)O)n1 [PP10-acid],–,–,–,–,–,–,–,–,dose-dependent antisickling effect,–,about 30%
